Our source for the IC50 values is US10927111B2, “Inhibitors of RAF kinases” (Kinnate Biopharma Inc., priority 2019, dated 2021).

The test deals with human RAF1 (Homo sapiens (Human), UniProt P04049). Put plainly: Protein kinase assay (radiometric 33P-ATP, MEK1 (K97R) substrate). To be noted: read-out: RAF-1 IC50. The format is biochemical. How it is done: Protein kinase assay: Assay platform was used to measure kinase/inhibitor interactions as described previously (Anastassiadis et al., 2011). In brief, for each reaction, kinase and substrate were mixed in a buffer containing 20 mM HEPES (pH 7.5), 10 mM MgCl2, 1 mM EGTA, 0.02% Brij35, 0.02 mg/mL BSA, 0.1 mM Na3VO4, 2 mM DTT, and 1% DMSO. All compounds were solubilized in DMSO. Compounds were then added to each reaction mixture via acoustic dispense using an ECHO 550 nanoliter dispenser. For human RAF1 testing, human MEK1 (K97R) was used as a substrate at a concentration of 3 micromolar, with a final ATP concentration of 10 micromolar. For human BRAF testing, human MEK1 (K97R) was used as a substrate at 1 micromolar concentration, with a final ATP concentration of 25 micromolar. […] After a 20-min incubation, ATP (Sigma-Aldrich, St. Louis, Mo. 63178) and [g33P] ATP (specific activity 10 microCi/microliter) purchased at PerkinElmer (Boston, Mass., 02118 Cat #BLU 003H250UC) were added at a final total concentration of 10 mM. Reactions were carried out at room temperature for 2 hr and spotted onto P81 ionexchange cellulose chromatography paper (Reaction Biology). Filter paper was washed in 0.75% phosphoric acid to remove unincorporated ATP. The percent remaining kinase activity relative to a vehicle-containing (DMSO) kinase reaction was calculated for each kinase/inhibitor pair. IC50 values were calculated using Prism 5 (GraphPad).
Chain of human RAF1 (P04049 whole entry): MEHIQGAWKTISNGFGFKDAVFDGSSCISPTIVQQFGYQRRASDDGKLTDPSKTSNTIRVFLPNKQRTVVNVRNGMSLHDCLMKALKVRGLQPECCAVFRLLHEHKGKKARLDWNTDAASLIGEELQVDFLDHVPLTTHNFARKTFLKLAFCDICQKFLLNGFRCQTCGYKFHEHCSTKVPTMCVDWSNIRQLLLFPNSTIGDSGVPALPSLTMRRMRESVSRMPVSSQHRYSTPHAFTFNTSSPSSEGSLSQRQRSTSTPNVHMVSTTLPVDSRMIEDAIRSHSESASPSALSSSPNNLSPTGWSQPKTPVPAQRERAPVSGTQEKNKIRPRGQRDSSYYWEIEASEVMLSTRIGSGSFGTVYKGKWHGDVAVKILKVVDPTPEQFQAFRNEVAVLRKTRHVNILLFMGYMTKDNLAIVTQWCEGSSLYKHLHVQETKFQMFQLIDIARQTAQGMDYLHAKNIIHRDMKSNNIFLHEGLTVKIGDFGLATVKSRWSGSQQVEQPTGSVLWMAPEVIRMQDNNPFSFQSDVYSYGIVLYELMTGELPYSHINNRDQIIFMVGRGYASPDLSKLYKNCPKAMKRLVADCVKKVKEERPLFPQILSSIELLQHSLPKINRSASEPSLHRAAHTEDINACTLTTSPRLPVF

[1] abbreviates: human MEK1 (K97R) substrate 3 micromolar, ATP 10 micromolar, 10-dose IC50 mode.

Like-named read-outs stand apart in the source and are kept apart here. Bounds are passed on as bounds.

As usually defined, the IC50 is the concentration that gives 50% inhibition. Consider `CNc1ncc2cc(-c3cc(NC(=O)N4CCO[C@@H](CC(F)(F)F)C4)c(F)cc3C)c(C)nc2n1` [Example 26, (S)-N-(2-fluoro-4-methyl-5-(7-methyl-2-(methylamino)pyrido[2,3-d]pyrimidin-6-yl)phenyl)-2-(2,2,2-trifluoroethyl)morpholine-4-carboxamide], for which the IC50 is at most 10 nM.
Same read-out and setting: as for `CNc1ncc2cc(-c3cc(NC(=O)N4CCO[C@@H](C(C)(C)C)C4)c(F)cc3C)c(C)nc2n1` [Example 23, (S)-2-(tert-butyl)-N-(2-fluoro-4-methyl-5-(7-methyl-2-(methylamino)pyrido[2,3-d]pyrimidin-6-yl)phenyl)morpholine-4-carboxamide], the figure is at most 10 nM.
`CNc1ncc2cc(-c3cc(NC(=O)c4ccnc(C(F)(F)F)c4)ccc3C)c(C(F)(F)F)nc2n1` [Example 73, N-[4-methyl-3-[2-(methylamino)-7-(trifluoromethyl)pyrido[2,3-d]pyrimidin-6-yl]phenyl]-2-(trifluoromethyl)pyridine-4-carboxamide]: the IC50 under setting [1] was at most 10 nM.
Same read-out and setting: as for `CNc1ncc2cc(-c3cc(NC(=O)c4cccc(C(F)(F)F)c4)cnc3C)cnc2n1` [Example 45, N-(6-methyl-5-(2-(methylamino)pyrido[2,3-d]pyrimidin-6-yl)pyridin-3-yl)-3-(trifluoromethyl)benzamide], the figure is at most 10 nM.
`CNc1ncc2cc(-c3cc(NC(=O)N4CC[C@H](OC(F)(F)F)C4)c(F)cc3C)cnc2n1` [Example 59]: under setting [1], the IC50 is at most 10 nM.
On the same count and under the same terms, as for `CNc1ncc2cc(-c3cc(NC(=O)N4CCO[C@@H](C(F)(F)F)C4)c(F)cc3C)c(C)nc2n1` [Example 10, (2R)-N-[2-fluoro-4-methyl-5-[7-methyl-2-(methylamino)pyrido[2,3-d]pyrimidin-6-yl]phenyl]-2-(trifluoromethyl)morpholine-4-carboxamide], the figure is at most 10 nM.
As to `CNc1ncc2cc(-c3cc(NC(=O)N4CC[C@@H](CC(F)(F)F)C4)c(F)cc3C)c(C)nc2n1` [Example 18, (S)-N-(2-fluoro-4-methyl-5-(7-methyl-2-(methylamino)pyrido[2,3-d]pyrimidin-6-yl)phenyl)-3-(2,2,2-trifluoroethyl)pyrrolidine-1-carboxamide], the IC50 is at most 10 nM.
For `CNc1ncc2cc(-c3cc(NC(=O)c4ccnc(C(F)(F)F)c4)ccc3C)c(Cl)nc2n1` [Example 64, N-[3-[7-chloro-2-(methylamino)pyrido[2,3-d]pyrimidin-6-yl]-4-methylphenyl]-2-(trifluoromethyl) pyridine-4-carboxamide], the IC50 under setting [1] was at most 10 nM.
Still for that read-out and setting: as for `CNc1ncc2cc(-c3cc(NC(=O)N4CC=C(C(F)(F)F)C4)c(F)cc3C)c(C)nc2n1` [Example 3, N-(2-fluoro-4-methyl-5-(7-methyl-2-(methylamino)pyrido[2,3-d]pyrimidin-6-yl)phenyl)-3-(trifluoromethyl)-2,5-dihydro-1H-pyrrole-1-carboxamide], the figure is at most 10 nM.
Take `CNc1ncc2cc(-c3cc(NC(=O)c4cc(C)nc(C(F)(F)F)c4)ccc3C)c(C)nc2n1` [Example 34, 2-methyl-N-(4-methyl-3-(7-methyl-2-(methylamino)pyrido[2,3-d]pyrimidin-6-yl)phenyl)-6-(trifluoromethyl)isonicotinamide]: the IC50 under setting [1] is at most 10 nM.
The same measure, in the same setting: as for `CNc1ncc2cc(-c3cc(NC(=O)N4CCC(C(C)(C)C)C4)c(F)cc3C)c(C)nc2n1` (centres unmarked) [Example 21, 3-(tert-butyl)-N-(2-fluoro-4-methyl-5-(7-methyl-2-(methylamino)pyrido[2,3-d]pyrimidin-6-yl)phenyl)pyrrolidine-1-carboxamide], the figure is at most 10 nM.
With `CNc1ncc2cc(-c3cc(NC(=O)c4ccnc(C(F)(F)F)c4)ccc3C)c(C)nc2n1` [Example 6, N-[4-methyl-3-[7-methyl-2-(methylamino)pyrido[2,3-d]pyrimidin-6-yl]phenyl]-2-(trifluoromethyl)pyridine-4-carboxamide], the IC50 was at most 10 nM.
For the molecule `CNc1ncc2cc(-c3cc(NC(=O)c4ccnc(C(C)(F)F)c4)ccc3C)c(C)nc2n1` [Example 52, 2-(1,1-difluoroethyl)-N-[4-methyl-3-[7-methyl-2-(methylamino)pyrido[2,3-d]pyrimidin-6-yl]phenyl]pyridine-4-carboxamide], the IC50 under setting [1] was at most 10 nM.
The same measure, in the same setting: to `CNc1ncc2cc(-c3cc(NC(=O)N4CC[C@H](OC(F)(F)F)C4)ccc3C)c(C#N)nc2n1` [Example 79] belongs at most 10 nM; to `CNc1ncc2cc(-c3cc(NC(=O)N4CCn5cnc(C(F)(F)F)c5C4)ccc3C)c(C)nc2n1` [Example 24, N-(4-methyl-3-(7-methyl-2-(methylamino)pyrido[2,3-d]pyrimidin-6-yl)phenyl)-1-(trifluoromethyl)-5,6-dihydroimidazo[l,5-a]pyrazine-7(8H)-carboxamide], at most 10 nM; to `CNc1ncc2cc(-c3cc(NC(=O)c4ccnc(C(F)(F)F)c4C)ccc3C)c(C)nc2n1` [Example 41, 3-methyl-N-(4-methyl-3-(7-methyl-2-(methylamino)pyrido[2,3-d]pyrimidin-6-yl)phenyl)-2-(trifluoromethyl)isonicotinamide], at most 10 nM.
Still for that read-out and setting: as for `Cc1ccc(NC(=O)c2ccnc(C(F)(F)F)c2)cc1-c1cc2cnc(NCCN3CCCC3)nc2nc1C` [Example 39, N-(4-methyl-3-(7-methyl-2-((2-(pyrrolidin-1-yl)ethyl)amino)pyrido[2,3-d]pyrimidin-6-yl)phenyl)-2-(trifluoromethyl)isonicotinamide], the figure is at most 10 nM.
`CNc1ncc2cc(-c3cc(NC(=O)c4ccnc(C(F)(F)F)c4)ccc3C)c(OC)nc2n1` [Example 68, N-[3-[7-methoxy-2-(methylamino)pyrido[2,3-d]pyrimidin-6-yl]-4-methylphenyl]-2-(trifluoromethyl)pyridine-4-carboxamide]: the IC50 is at most 10 nM.
`CNc1ncc2cc(-c3cc(NC(=O)N4CC[C@H](OC(F)(F)F)C4)ccc3C)cnc2n1` [Example 56, 3S-N-[4-methyl-3-[2-(methylamino)pyrido[2,3-d]pyrimidin-6-yl]phenyl]-3-(trifluoromethoxy)pyrrolidine-1-carboxamide]: the IC50 under setting [1] is at most 10 nM.
Consider `CNc1ncc2cc(-c3cc(NC(=O)N4CC[C@H](CC(F)(F)F)C4)c(F)cc3C)c(C)nc2n1` [Example 17, (R)-N-(2-fluoro-4-methyl-5-(7-methyl-2-(methylamino)pyrido[2,3-d]pyrimidin-6-yl)phenyl)-3-(2,2,2-trifluoroethyl)pyrrolidine-1-carboxamide], for which the IC50 under setting [1] was at most 10 nM.
